In US20090099167A1, “Organic compounds” (Novartis Institutes for Biomedical Research, priority 2004, published 2009):
Like-named read-outs stand apart in the source and are kept apart here.

Experiments:
[1] = molecular target: Cdk1/cycB (UniProt P06493); test: Cdk1/cycB kinase assay, histone H1 substrate; type: biochemical, starfish; conditions: Table 4; read-out: Cdk1, activity (IC50 for kinase inhibition)
Procedure: The inhibition of Cdk1 can be determined as follows: Cdk1/cycB: Cdk1/cycB are obtained from ProQinase, Freiburg, Germany. Starfish oocytes are induced to enter M phase of the cell cycle with 10 μM 1-methyladenine and frozen in liquid nitrogen and stored at −80° C. […] Briefly, the supernatant from oocytes is equilibrated for 30 min at 4° C. under constant rotation with the p9^CKShs-sepharose beads. The beads are extensively washed and active cdk1/cycB kinase is eluted with purified p9^CKShs (3 mg/ml). […] The assay is carried with slight modifications in 96-well plates at ambient temperature for 20 min. […] The reaction is terminated by addition of 25 μl 0.05 M EDTA pH 7.0. An aliquot of 40 μl is spotted with a multichannel dispenser on Immobilon P membranes mounted in a Millipore Microtiter filter manifold connected to a low vacuum source. After elimination of liquid, the membrane is transferred to a sequence of 4 washing baths containing 0.5% H3PO4 and one with EtOH (shaking incubation for 10 min each), dried, mounted onto a Hewlett Packard TopCount manifold added 10 μl Microscint® and counted. […] Cells were seeded at 2.5×10^7 cells per 150 mm dish and allowed to attach to a 150 mm dish for 1 hr at RT. Media (SF900II containing 10% FBS) is aspirated and recombinant baculovirus; GST-C-Raf-1, v-Ras and v-Src are added at MOI of 3.0, 2.5 and 2.5 receptively in a total volume of 4-5 mL. Cells are incubated for 1 hr at RT and then 15 mL of medium is added. Infected cells are incubated for 48-72 hr at 27° C. Infected Sf21 cells are scraped and collected into a 50 mL tube and centrifuged for 10 min at 4° C. at 1100 g in a Sorvall centrifuge. The cell pellet is washed once with ice cold PBS and lysed with 0.6 mL lysis buffer per 2.5×10^7 cells. Complete lysis of cells is achieved after 10 min on ice with occasional pipetting. […] GST-c-Raf-1 was allowed to bind to the beads at 4° C. for 1 hr with rocking. Bound GST-c-Raf-1 with beads was transferred to a column. The column is washed once with lysis buffer and twice with ice cold Tris buffered saline. Ice cold elution buffer is added and column flow is stopped to allow the free glutathione to disrupt the interaction of GST-c-Raf-1 with glutathione sepharose beads. Fractions (1 mL) are collected into pre-chilled tubes. Each tube contains 10% glycerol (final concentration) to maintain kinase activity during freeze thaw cycles. Purified fractions of GST-c-Raf-1 kinase protein are stored at −80° C.

[2] = molecular target: T1, human EphB4 receptor (Homo sapiens, UniProt P54760); test: EphB4 kinase assay, GST-EphB, 33P incorporation into poly(Glu,Tyr); type: biochemical
T1 construct: made in house; host or cells: Sf9 or Sf21 (baculovirus)
T1 sequence (P54760 566-987): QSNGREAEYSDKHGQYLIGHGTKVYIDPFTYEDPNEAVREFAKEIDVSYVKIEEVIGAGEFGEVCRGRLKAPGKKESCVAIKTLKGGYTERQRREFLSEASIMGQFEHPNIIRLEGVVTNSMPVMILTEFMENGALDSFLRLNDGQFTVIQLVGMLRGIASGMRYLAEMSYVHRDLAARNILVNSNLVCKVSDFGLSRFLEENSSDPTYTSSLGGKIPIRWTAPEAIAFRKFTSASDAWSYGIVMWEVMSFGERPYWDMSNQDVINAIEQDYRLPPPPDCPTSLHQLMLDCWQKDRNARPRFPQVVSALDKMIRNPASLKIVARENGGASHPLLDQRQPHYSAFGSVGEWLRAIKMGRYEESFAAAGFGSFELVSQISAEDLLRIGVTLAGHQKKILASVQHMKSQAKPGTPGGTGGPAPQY
From the text: EphB4: Production and measure of enzymatic activity: Generation of Bac-to-Bac™ (Initrogen Life Technologies, Basel, Switzerland) GST-fusion expression vectors: Entire cytoplasmatic coding regions of the EphB-class are amplified by PCR from cDNA libraries derived from human placenta or brain, respectively. Recombinant baculovirus are generated that express the amino acid region 566-987 of the human EphB4 receptor (SwissProt Database, Accession No. P54760). GST sequence is cloned into pFastBac1® vector (Invitrogen Life Technologies, Basel, Switzerland) and PCR amplified. cDNAs encoding EphB4-receptor domains, respectively, are cloned in frame 3′prime to the GST sequence into this modified FastBac1 vector to generate pBac-to-Bac™ donor vectors. Single colonies arising from the transformation are inoculated to give overnight cultures for small scale plasmid preparation. […] By automated sequencing the inserts and approximately 50 bp of the flanking vector sequences are confirmed on both strands. Production of viruses: Viruses for each of the kinases are made according to the protocol supplied by GIBCO if not stated otherwise. In brief, transfer vectors containing the kinase domains are transfected into the DH10Bac cell line (GIBCO) and plated on selective agar plates. Colonies without insertion of the fusion sequence into the viral genome (carried by the bacteria) are blue. Single white colonies are picked and viral DNA (bacmid) isolated from the bacteria by standard plasmid purification procedures. Sf9 cells or Sf21 cells are then transfected in 25 cm2 flasks with the viral DNA using Cellfectin reagent according to the protocol. Purification of GST-tagged kinases: The centrifuged cell lysate is loaded onto a 2 mL glutathione-sepharose column (Pharmacia) and washed three times with 10 mL of 25 mM Tris-HCl, pH 7.5, 2 mM EDTA, 1 mM DTT, 200 mM NaCl. The GST-tagged proteins are then eluted by 10 applications (1 mL each) of 25 mM Tris-HCl, pH 7.5, 10 mM reduced-glutathione, 100 mM NaCl, 1 mM DTT, 10% Glycerol and stored at −70° C. Protein kinase assays: The activities of protein kinases are assayed in the presence or absence of inhibitors, by measuring the incorporation of 33P from [γ33P]ATP into a polymer of glutamic acid and tyrosine (poly(Glu,Tyr)) as a substrate. The kinase assays with purified GST-EphB (30 ng) are carried out for 15-30 min at ambient temperature in a final volume of 30 μL containing 20 mM Tris.HCl, pH 7.5, 10 mM MgCl2, 3-50 mM MnCl2, 0.01 mM Na3VO4, 1% DMSO, 1 mM DTT, 3 μg/mL poly(Glu,Tyr) 4:1 (Sigma; St. Louis, Mo., USA) and 2.0-3.0 μM ATP (γ-[33P]-ATP 0.1 μCi). The assay is terminated by the addition of 20 μL of 125 mM EDTA. Subsequently, 40 μl of the reaction mixture are transferred onto Immobilon-PVDF membrane (Millipore, Bedford, Mass., USA) previously soaked for 5 min with methanol, rinsed with water, then soaked for 5 min with 0.5% H3PO4 and mounted on vacuum manifold with disconnected vacuum source. After spotting all samples, vacuum is connected and each well rinsed with 200 μl 0.5% H3PO4. Membranes are removed and washed 4× on a shaker with 1.0% H3PO4, once with ethanol. Membranes are counted after drying at ambient temperature, mounting in Packard TopCount96-well frame, and addition of 10 μL/well of Microscint™ (Packard). IC50 values are calculated by linear regression analysis of the percentage inhibition of each compound in duplicate, at four concentrations (usually 0.01, 0.1, 1 and 10 μM). One unit of protein kinase activity is defined as 1 nmole of 33P ATP transferred from [γ33P] ATP to the substrate protein per minute per mg of protein at 37° C. Compounds of formula I show EphB4 inhibition down to 10 nM, preferably IC50 values between 0.01-1.0 μM.

melting point [°C]	Structure (SMILES)	further results
186 to 188	CN(C)c1ccc(-c2cnn3c(N)c(-c4ccc(OS(=O)(=O)c5ccc(Cl)cc5)cc4)cnc23)cc1 [Example 11, 4-Chloro-benzenesulfonic acid 4-[7-amino-3-(4-dimethylamino-phenyl)-pyrazolo[1,5-a]pyrimidin-6-yl]-phenyl ester]	–
–	CN1CCN(c2cccc(-c3cnn4c(N)c(-c5ccccc5O)cnc34)c2)CC1 [Example 37, 2-{7-Amino-3-[3-(4-methyl-piperazin-1-yl)-phenyl]-pyrazolo[1,5-a]pyrimidin-6-yl}-phenol]	IC50 [1]: < 10 µM
143 to 146	CN(C)c1ccc(-c2cnn3c(N)c(-c4ccc(NS(=O)(=O)c5cccc(Cl)c5Cl)cc4)cnc23)cc1 [Example 10, N-{4-[7-Amino-3-(4-dimethylamino-phenyl)-pyrazolo[1,5-a]pyrimidin-6-yl]-phenyl}-2,3-dichloro-benzenesulfonamide]	–
–	COc1cccc(-c2cnc3c(-c4ccc(N5CCN(C)CC5)cc4)cnn3c2N)c1 [Example 2, 6-(3-Methoxy-phenyl)-3-[4-(4-methyl-piperazin-1-yl)-phenyl]-pyrazolo[1,5-a]pyrimidin-7-ylamine]	IC50 [1]: < 10 µM
–	Cn1cc(-c2cnn3c(N)c(-c4cccc(O)c4)cnc23)c2ccccc21 [Example 45, 3-[7-Amino-3-(1-methyl-1H-indol-3-yl)-pyrazolo[1,5-a]pyrimidin-6-yl]-phenol]	IC50 ([2]; Table 4, read-out: EphB4, activity (IC50 for kinase inhibition)): < 10 µM
163 to 168	CCN(CC)C1CCN(c2cccc(-c3cnn4c(N)c(-c5cccc(Cl)c5)c(C)nc34)c2)CC1 [Example 104, 6-(3-Chloro-phenyl)-3-[3-(4-diethylamino-piperidin-1-yl)-phenyl]-5-methyl-pyrazolo[1,5-a]pyrimidin-7-ylamine]	–
116 to 121	COc1ccc(N2CCN(C)CC2)cc1-c1cnn2c(N)c(-c3cccc(Cl)c3)c(C)nc12 [Example 74, 6-(3-Chloro-phenyl)-3-[2-methoxy-5-(4-methyl-piperazin-1-yl)-phenyl]-5-methyl-pyrazolo[1,5-a]pyrimidin-7-ylamine]	IC50 ([2]; Table 5, read-out: EphB4, IC50 class): < 1 µM
208 to 210	CCN(CC)C1CCN(c2cccc(-c3cnn4c(N)c(-c5ccc(F)cc5)c(C)nc34)c2)CC1 [Example 105, 3-[3-(4-Diethylamino-piperidin-1-yl)-phenyl]-6-(4-fluoro-phenyl)-5-methyl-pyrazolo[1,5-a]pyrimidin-7-ylamine]	–
